Data set [1] can be described thus: Fluorescence assay for inhibition of L-cystine crystal formation (aqueous solubility of L-cystine, OPA/NBC). The data set is classed as physicochemical. The conditions noted are these: for fold increase in potency/activity as compared to CDME: at increasing the aqueous solubility of L-cystine; for Ratio: improvement in potency over the control CDME. The procedure: As used herein, the EC2x's are the concentrations required of the candidate compounds to double the aqueous solubility of cystine and were determined to assess drug potency and potential dosing regimens for in vivo use. One of ordinary skill in the art is readily able to ascertain such information using commonly known methodologies.
Another aspect of the present invention is directed to the processes of determining the concentration of L-cystine using a fluorescence assay after OPA/NBC derivatization. In at least one embodiment with respect to this aspect of the invention, the concentration of the L-cystine was assessed by a fluorescence assay. Accordingly, the inventors developed a fluorescence-based assay using O-phthaldialdehyde (OPA) and N-Boc-cysteine (NBC) to accurately measure the concentration of L-cystine in aqueous solutions using a similar protocol we previously reported. OPA/NBC are popular reagents used for precolumn derivatization of amino acids in HPLC. This derivatization is fast and simple to operate. However, the reaction of OPA with the disulfide cystine and NBC yielded derivatives with weak fluorescence. The disulfide in cystine was reduced and then alkylated with iodoacetic acid to form S-carboxymethylcysteine, which yielded OPA/NBS derivatives with normal fluorescence. L-Cystine solution was thus used to construct a standard curve. L-Cystine first reacted with DTT for 10 min, followed by reaction with iodoacetic acid for 15 min, then reacted with OPA and NBC for 3 min. The final mixture was pipetted into 384-well plate and the fluorescence intensity was read at Ex 340 nm/Em 460 nm. A linear standard curve was obtained in the concentration range between 50 μM and 400 μM (see FIG. 3).
Formation of supersaturation solution—a supersaturated solution was formed by dissolving 21 mg of L-cystine in 30 mL of Millipore water (˜3 mM) under reflux at 100° C. for 20 min until the L-cystine was completely dissolved. The supersaturated solution was then allowed to cool slowly with stirring for 75 min.
Construction of standard curves—L-Cystine (5 mg) was dissolved in Millipore water (34.7 mL) to form a 0.6 mM solution as a stock solution. Then, L-cystine solution was diluted to 0.4, 0.3, 0.2, 0.1, 0.05 mM solution. 10 uL of each L-cystine solutions, 90 uL of 0.1 M dibasic sodium phosphate solution, and 10 uL of DTT solution (12.5 mM) were mixed at r.t. for 10 min, before the addition of 10 uL of iodoacetic acid (100 mM) and continued incubation at r.t. for an additional 15 min. This was then followed by the addition of 10 uL of OPA (100 mM in methanol) and 10 uL of NBC (100 mM in methanol). The derivatization was allowed to proceed for 3 min before 40 uL of the mixture was plated in a 384-well plate and read at Ex 340 nm/Em 460 nm. The standard curve was repeated for each set of experiments and used to calculate the concentration of L-cystine in each sample.
Determination of L-cystine concentration—All test compounds were dissolved in water to form 10 mM stock solution. 5 uL of each solution was added to 500 uL L-cystine supersaturated solution. The mixtures were allowed to stand at 25° C. for 72 h. At the end of incubation, the mixtures were centrifuged at 10,000 rpm for 4 min and the supernatants were diluted 2-fold for concentration measurement. Each diluted mixture (10 uL), 0.1 M dibasic sodium phosphate solution (90 uL), and 10 uL of DTT solution (12.5 mM) were mixed at r.t. for 10 min, before the addition of 10 uL of iodoacetic acid (100 mM) and continued incubation at r.t. for an additional 15 min. Derivatization was performed by the addition of 10 uL of OPA (100 mM in methanol) and 10 uL of NBC (100 mM in methanol) for 3 min. 40 uL of the derivatized mixture was plated in a 384-well plate and fluorescence was read at Ex 340 nm/Em 460 nm to derive the concentrations of the original mixtures. […]

Another data set has as its system Slc3a1 knockout mice. The experiment in a line: In vivo activity in a genetic mouse model, four-week oral treatment (bladder stones, urine amino acids). The procedure: Slc3a1 knockout mice in a mixed 129/C57BL6 background were used in the studies described here. Two-mouth old knockout male mice for LH707 or LH708 treatment were selected. […] Most male mice over age six months have bladder stones and some have kidney stones as well. Female knockout mice have crystalluria but no stones until age over 12 months. Mouse genotypes and gender were determined by PCR amplification of tail DNA. Based on previous observations, Slc3a1 heterozygotes have no apparent phenotype so they were used in place of wild-type mice as needed. Animal studies were conducted in accordance with Rutgers University IACUC policies.
LH707 dihydrochloride (MW 451.43) and LH708 tetrahydrochloride (MW 550.44) were prepared fresh daily (2.9 mM in water) and 200 μl was administered to Slc3a1 knockout male mice (body weight 20 g) by gavage daily for four weeks using a 20G disposable flexible plastic feeding needle with a soft tip (Model FTP-20-30, Instech Laboratories, Inc., Plymouth Meeting, Pa.).
This dose is equivalent to 29 μmol/kg (29 mg/m^2 assuming a body surface area of 0.007 m^2). […]
(§1) Urine samples (0.15 to 1.1 ml) were collected by placing the mice in metabolic cages for four hours or longer and frozen at −20° C. The four-week treatment samples were analyzed for amino acids by ion exchange chromatography on a Biochrom analyzer (Biochrom US, Holliston, Mass.) and the amino acid levels normalized to nmol/mg creatinine. The seven-day treatment samples were analyzed for LH707 and LH708 by LC-MS (see below).
Mice were sacrificed after urine collection and the bladder and kidneys removed and placed in 10% formalin. […] This application was evaluated for the assessment of quantitative parameters such as bladder volume, stone volume, and stone number from the scanned 3D datasets.
After micro CT scanning, bladders were weighed and the stones removed, weighed, counted, and measured in the longest dimension (see FIG. 5). […]

Data set [2] in a line: Compound concentration and volume of mouse urine after 7 daily oral doses (LC-MS/MS). The note with it: for oral bioavailability: concluded from urine concentrations after oral dosing. The data set is classed as in vivo, mice. As to the method:
This dose is equivalent to 29 μmol/kg (29 mg/m^2 assuming a body surface area of 0.007 m^2). To determine LH707/LH708 absorption and excretion, these compounds were administered daily for seven days and urine samples collected before and immediately after the last treatment.
as §1
It was determined that the concentrations of LH707/LH708 in the mine samples collected using LC-MS/MS in positive MRM mode (LH707, 379.0→188.9; LH708, 203.1→101.3) on a Transcend LX2 system (Thermo Fisher, Waltham, Mass.) coupled to an API 4000 (AB Sciex, Framingham, Mass.). […] The gradient was performed at a flow rate of 750 μL/min as follows: 95% B for 90 s, 95 to 5% B in 42 s, 5% B for 30 s.

The conditions of data set [3]: AFM, prior report; cited from earlier work.
For data set [4] the following is noted: prior report; cited from earlier work.
The subject of the next data set is cell culture. The conditions noted are these: cell culture experiments, prior report; cited from earlier work.
The subject of a further data set is rats. The conditions noted are these: prior report; cited from earlier work.
The mark [5] stands for this setting: concentration required to double the aqueous solubility of cystine, water, 25° C., 72 h.
Where [6] appears, read: effective concentration required to double the solubility of L-cystine in water.

As to `CN1CCN(C(=O)[C@@H](N)CSSC[C@H](N)C(=O)N2CCN(C)CC2)CC1` [LH708, L-Cystine bis(N′-methylpiperazide)], the “fold increase in potency/activity as compared to CDME” value stood at 24 fold in data set [1] (listed as CDNMP) and 24.41 fold in data set [1] (listed as VIII). In addition, the EC2x is 0.26 mM in data set [1] (setting [5]) and 0.00026 mM in data set [1] (setting [6]). Also, the Ratio in data set [1] is given as 24.4. The “concentrations at which inhibition of cystine crystallization in vitro occurs” value in data set [1] is recorded as “submicromolar”. Further, the “efficacy at inhibiting cystine stone formation” value in the data set with Slc3a1 knockout mice (Slc3a1 knockout male mice, gavage daily for four weeks, LH708 versus LH707) is “better efficacy”. The “urine concentration of other amino acids (ornithine, lysine, arginine, proline, valine, leucine, phenylalanine)” value with Slc3a1 knockout mice (four-week treatment) is “no significant changes”. Further, the “concentration of cystine in mouse urine as compared to before treatment” value in the data set on Slc3a1 knockout mice (four-week treatment, paired t-test) is “significantly increased”. Further, the “compound concentration in mouse urine” value in data set [2] (after 7 daily oral doses) is reported as “micromolar concentrations”. In addition, the “compound concentration in urine of Slc3a1 knockout mice versus control or normal mice” value in data set [2] (after 7 daily oral doses, FIG. 7) is given as “significantly higher concentrations”. Also, the oral bioavailability result in data set [2] is given as “readily bioavailable”.

Consider `N[C@@H](CSSC[C@H](N)C(=O)NCCO)C(=O)NCCO` [LH709, L-Cystine diethanolamide], for which the EC2x in data set [1] (setting [5]) is listed as 2.02 mM. Also, in data set [1], the Ratio stood at 3.2.

In the case of `N[C@@H](CSSC[C@H](N)C(=O)NC1CC1)C(=O)NC1CC1` [LH704, L-Cystine bis(cyclopropylamide)], the EC2x in data set [1] (setting [5]) was 3.53 mM. Besides, the Ratio in data set [1] came out at 1.8.

`N[C@@H](CSSC[C@H](N)C(=O)N1CCOCC1)C(=O)N1CCOCC1` [LH707]: the “fold increase in potency/activity as compared to CDME” value in data set [1] (listed as CDMOR) is recorded as “about 7 fold”; in data set [1] (listed as VII) it was 7.44 fold. Further, the EC2x in data set [1] (setting [5]) came out at 0.86 mM; in data set [1] (setting [6]) it was 0.00086 mM. For the same compound, the Ratio in data set [1] came out at 7.4. The “concentrations at which inhibition of cystine crystallization in vitro occurs” value in data set [1] is “submicromolar”. Moreover, the “compound concentration in mouse urine” value in data set [2] (after 7 daily oral doses) was “micromolar concentrations”. Moreover, the oral bioavailability result in data set [2] is given as “readily bioavailable”.

In data set [1] (setting [5]), `N[C@@H](CSSC[C@H](N)C(=O)N1CCCCC1)C(=O)N1CCCCC1` [LH706, L-Cystine bispiperidine] registered an EC2x of 1.59 mM. Also, in data set [1], the Ratio is 4.0.

Regarding `COC(=O)[C@@H](N)CSSC[C@H](N)C(=O)O` [CME, L-cystine methylester], the “growth velocity of six symmetry-equivalent {100} steps of L-cystine crystals” value in data set [3] was “dramatically reduce”.

On to `COC(=O)[C@@H](N)CSSC[C@H](N)C(=O)OC` [CDME, L-cystine dimethylester], for which the EC2x in data set [1] (setting [5]) is 6.37 mM; in data set [1] (setting [6]) it was 0.00353 mM. Besides, the Ratio in data set [1] stood at 1.0. The “concentration that almost completely inhibits the crystallization of L-cystine in water” value in data set [4] is “above 2 mg/L”. In addition, the “growth velocity of six symmetry-equivalent {100} steps of L-cystine crystals” value in data set [3] is reported as “dramatically reduce”. For the same compound, the “concentration causing loss of cell viability” value in the data set with cell culture is “approximately 1 mM”. In the data set with rats, the “dosage demonstrating adverse effects” value is reported as “approximately 500 mg/kg per day”.

The values are drawn from patent US11420949B2, “Cystine diamide analogs for the prevention of cystine stone formation in cystinuria” (Rutgers, The State University of New Jersey, priority 2013, dated 2022).
